Type in all cases: cell-based, human
For series [1], the system named is acetyl-CoA carboxylase (ACC1). The series can be described thus: Western blot analysis, ACC1 phosphorylation in OA-induced HuS-E/2 cells. The settings on record: CX at 50-400 μM, 0.1 mM OA-induced HuS-E/2 cells. The text has this:
(§1) The procedure regarding Western blot analysis is as follows. For western blot analysis, an equal amount of protein from each sample was resolved by sodium dodecyl sulfate polyacrylamide gel electrophoresis (SDS-PAGE) and then transferred to polyvinylidene fluoride (PVDF) membranes. Primary antibodies against AMPK (Cat. GTX103487), adipose triglyceride lipase (ATGL) (Cat. GTX109941), carnitine palmitoyl-transferase 1 (CPT1) (Cat. GTX114337), and β-actin (Cat. GTX109639) were from GeneTex (Taiwan), and those against pAMPK (Cat. AP0432), phospho acetyl-CoA carboxylase (pACC) (Cat. AP0298), ACC (Cat. A15606), and fatty acid synthase (FAS) (Cat. A21182) was from ABclonal (China). Horseradish peroxidase (HRP)-conjugated secondary antibodies were from Jackson ImmunoResearch Laboratories, Inc., USA. WesternBright® ECL kits (Advansta Inc., USA) were used for protein visualization. Levels of protein expression were quantified by densitometric analyses.
(In general: In western blotting, separated proteins are transferred to a membrane and probed.)

Series [2] concerns adenosine 5′-monophosphate-activated protein kinase (AMPK). The series can be described thus: Western blot analysis, AMPK phosphorylation in OA-induced HuS-E/2 cells. The settings on record: CX at 100-400 μM, 0.1 mM OA-induced HuS-E/2 cells.
Source text: as §1

Another series relates to HuS-E/2 cells. The series can be described thus: MTT cell viability / cytotoxicity assay. The settings on record: 24 h. As for the experimental part:
To determine the cytotoxicity of CX, HuS-E/2 cells were incubated with CX at the concentrations indicated for 24 hours. The CX stock solution was 200 mM in dimethyl sulfoxide (DMSO; Cat. 15578544, J. T. Baker, USA), and stored at −20° C.
The procedure regarding cell culture of immortalized primary human hepatocytes HuS-E/2 cells is as follows. HuS-E/2 cell line, kindly provided by Dr. Shimotohno (Kyoto University, Japan), were maintained in primary hepatocyte medium (PH medium), containing 20 mM HEPES, 10% fetal bovine serum, 15 μg/mL L-proline, 0.25 μg/mL insulin, 50 nM dexamethasone, 44 mM NaHCO3, 10 mM nicotinamide, 5 ng/ml EGF, 0.1 mM Asc-2P, 100 IU/mL penicillin, 100 μg/mL streptomycin, 10 μg/mL gentamicin, and 1 μg/mL plasmocin in high-glucose Dulbeco's modified Eagle medium (DMEM). Cells were incubated at 37° C. in an incubator supplied with 5% CO2.
3-(4,5-dimethylthiazol-2-yl)-2,5-diphenyltetrazolium bromide (MTT) (Cat. M5655) (Sigma-Aldrich, USA) stock solution was 5 mg/mL in 1×phosphate-buffered saline (PBS), and stored at −20° C.
The procedure regarding cell viability is as follows. HuS-E/2 cells were seeded at 4.5×10^4 cells/well in a 96-well plate and were incubated with 0-1600 μM CX for 24 h. MTT was added to each well to a final concentration of […] and was incubated at 37° C. for an hour before removal. MTT-formazan crystals formed by metabolically viable cells were dissolved in 200 μL of DMSO for absorbance detection at 550 nm using a SPARK® Multimode microplate reader from TECAN, Switzerland. The 50% cytotoxic concentration (CC50) was calculated using the normalized response (variable slope) model given in GraphPad Prism 7.03 (USA).

The test system of series [3] is fatty acid synthase (FAS). The series can be described thus: Western blot analysis, FAS expression in OA-induced HuS-E/2 cells. The settings on record: CX at 100-400 μM, 0.1 mM OA-induced HuS-E/2 cells.
Source text: as §1

The test system of series [4] is adipose triglyceride lipase (ATGL). As to the kind of experiment: Western blot analysis, ATGL expression in OA-induced HuS-E/2 cells. The settings on record: CX at 50-400 μM, 0.1 mM OA-induced HuS-E/2 cells.
Source text: as §1

Another series has as its system OA-induced HuS-E/2 cells. As to the kind of experiment: Oil Red O staining of lipid accumulation in oleic acid (OA)-induced cells. The settings on record: 0.1 mM OA, 18 h. As for the experimental part: To evaluate the effect of CX on lipid accumulation, HuS-E/2 cells were incubated with or without 0.1 mM OA (Cat. O1383) in the presence or absence of CX for 18 hours. The OA stock solution was 3.15 M in DMSO, and stored at −20° C.
The procedure regarding oil red O staining is as follows. Oil Red O stain (Cat. O0625) were from Sigma-Aldrich, USA. The Oil Red O stain stock solution was 3 mg/mL in isopropanol, and stored at room temperature. For microscopic observation, cells were fixed in 4% paraformaldehyde in phosphate-buffered saline (PBS) for 30 min at room temperature, stained with Oil Red O stain working solution (60% Oil Red O stock solution and 40% distilled water) for 1 h at room temperature, and then rinsed with water. Micrographs were captured under a microscope. For quantitative analysis of cellular lipids, cells were washed three times with ice-cold PBS, fixed with 10% formalin for 1 h, washed, stained with Oil Red O solution for 1 h at room temperature, and washed with water to remove excess dye. Cell-bound Oil Red O stain was dissolved in isopropanol at room temperature for 5 min with shaking. The absorbance at 510 nm was measured in a spectrophotometer. The relative lipid content is calculated by setting the readouts of those receiving vehicles to 0% and those receiving free fatty acids alone to 100%.

The test system of series [5] is carnitine palmitoyl-transferase 1 (CPT1). The series can be described thus: Western blot analysis, CPT1 expression in OA-induced HuS-E/2 cells. The settings on record: CX at 50-400 μM, 0.1 mM OA-induced HuS-E/2 cells.
Source text: as §1

As to `COc1ccc2[nH]c(=O)oc2c1` [CX, 6-methoxybenzoxazolinone], in series [1], the ACC1 phosphorylation entry was “increasing ACC1 phosphorylation”. For the same compound, the AMPK phosphorylation entry in series [2] is listed as “marked increase”. Moreover, the “effect on the viability of HuS-E/2 cells” value with HuS-E/2 cells (CX at 25-400 μM, MTT) was “no significant effect”. Further, the “cytotoxicity in HuS-E/2 cells” value in the series with HuS-E/2 cells (CX at up to 400 μM) is “did not inflict cytotoxicity”. Further, in the series on HuS-E/2 cells (HuS-E/2 cells, MTT, n=3, mean±SEM, read-out: CC50 (50% cytotoxic concentration)), the CC50 is 1430 ± 170 µM. The FAS expression result in series [3] was “downregulated FAS expression”. The ATGL expression result in series [4] is reported as “increased ATGL expression substantially”. In addition, the “lipid accumulation (micrographs, Oil Red O)” value with OA-induced HuS-E/2 cells (FIG. 2A) is on record as “reduced lipid accumulation in a dose-dependent manner”. Moreover, the “lipid content (Oil Red O, absorbance 510 nm)” value with OA-induced HuS-E/2 cells (FIG. 2B) was “diminished the lipid content”. For the same compound, the CPT1 levels result in series [5] is “elevated CPT1 levels”.

Source of the values: patent US20250134867A1, “METHOD FOR MODULATING LIPID METABOLISM, AMELIORATING NON-ALCOHOLIC FATTY LIVER DISEASE AND METABOLIC SYNDROME BY USING 6-METHOXYBENZOXAZOLINONE” (Taichung District Agricultural Research and Extension …, priority 2023, published 2025).
